Experimental data reported in patent US20020065219A1, “Water soluble thiazolyl peptide derivatives” (priority 2000, published 2002).
≈ marks a conversion by molar mass, not a printed value. Read-outs that look alike come from different tables or passages of the source.

Legend:
[1] = test system: Staphylococcus aureus A15090; test: MIC, broth micro dilution assay (NCCLS); format: cell-based; details: for MIC: Staphylococcus aureus, A15090, 18 h, read-out: MIC (μg/mL) against Staphylococcus aureus A15090
[2] = test system: Staphylococcus aureus A15090; test: animal or person; format: in vivo, female ICR mice; details: A15090, in Mus musculus, iv, 1 h, read-out: PD50 (dose which protects 50% of mice from mortality)
[3] = test system: Streptococcus pneumoniae A28272; test: MIC, broth micro dilution assay (NCCLS); format: cell-based; details: for MIC: Streptococcus pneumoniae, A28272, 18 h, read-out: MIC (μg/mL) against Streptococcus pneumoniae A28272
[4] = test system: Enterococcus faecalis A20688; test: MIC, broth micro dilution assay (NCCLS); format: cell-based; details: for MIC: Enterococcus faecalis, A20688, 18 h, read-out: MIC (μg/mL) against Enterococcus faecalis A20688
[5] = Mueller-Hinton medium, 35° C., 18 hours
[6] = 50% Mueller-Hinton medium and 50% Todd Hewitt medium, 35° C., 18 hours

SMILES | MIC [1] | ED50 [2] | MIC [3] | MIC [4] | MIC (μg/mL) against Staphylococcus aureus A15090 [1] | MIC (μg/mL) against Streptococcus pneumoniae A28272 [3] | MIC (μg/mL) against Enterococcus faecalis A20688 [4] | MIC (μg/mL) against Staphylococcus aureus A15090 [1, 5] | MIC (μg/mL) against Streptococcus pneumoniae A28272 [3, 6] | MIC (μg/mL) against Enterococcus faecalis A20688 [4, 5]
CO/C(C)=C1/NC(=O)C([C@@H](C)O)NC(=O)c2csc(n2)-c2cc(O)c(-c3nc(C(=O)NC(CN4CCOCC4)C(N)=O)cs3)nc2-c2csc(n2)[C@@H]2COC(=O)c3c4c5c(cccc5n3O)COC(=O)[C@@H](O[C@H]3C[C@](C)(O)[C@H](N(C)C)[C@H](C)O3)[C@@H](OC4)[C@H](NC(=O)c3csc1n3)c1nc(cs1)C(=O)N2 (some centres unmarked) [Example 8] | 0.015 µg/mL (≈ 0.00984 µM) | 0.19 to 7.3 mg/kg | 0.003 µg/mL (≈ 0.00197 µM) | 0.125 µg/mL (≈ 0.082 µM) | – | – | – | – | – | –
CO/C(C)=C1/NC(=O)C(C(C)O)NC(=O)c2csc(n2)-c2cc(O)c(-c3nc(C(=O)NC(CN(C)C)C(N)=O)cs3)nc2-c2csc(n2)C2COC(=O)c3c4c5c(cccc5n3O)COC(=O)C(O[C@H]3C[C@](C)(O)[C@H](N(C)C)[C@H](C)O3)C(OC4)C(NC(=O)c3csc1n3)c1nc(cs1)C(=O)N2 (some centres unmarked) [Example 7] | 0.06 µg/mL (≈ 0.0405 µM) | 0.19 to 7.3 mg/kg | 0.03 µg/mL (≈ 0.0202 µM) | 0.125 µg/mL (≈ 0.0843 µM) | – | – | – | – | – | –
CO/C(C)=C1/NC(=O)C(C(C)O)NC(=O)c2csc(n2)-c2cc(O)c(-c3nc(C(=O)NC(CN(C)CCN(C)C)C(N)=O)cs3)nc2-c2csc(n2)C2COC(=O)c3c4c5c(cccc5n3O)COC(=O)C(O[C@H]3C[C@](C)(O)[C@H](N(C)C)[C@H](C)O3)C(OC4)C(NC(=O)c3csc1n3)c1nc(cs1)C(=O)N2 (some centres unmarked) [Example 9] | 0.06 µg/mL (≈ 0.039 µM) | 0.19 to 7.3 mg/kg | 0.007 µg/mL (≈ 0.00455 µM) | 0.5 µg/mL (≈ 0.325 µM) | – | – | – | – | – | –
CO/C(C)=C1/NC(=O)C(C(C)O)NC(=O)c2csc(n2)-c2cc(O)c(-c3nc(C(=O)NC(CN4CCN(C)CC4)C(N)=O)cs3)nc2-c2csc(n2)C2COC(=O)c3c4c5c(cccc5n3O)COC(=O)C(O[C@H]3C[C@](C)(O)[C@H](N(C)C)[C@H](C)O3)C(OC4)C(NC(=O)c3csc1n3)c1nc(cs1)C(=O)N2 (some centres unmarked) [Example 1] | 0.25 µg/mL (≈ 0.163 µM) | 0.19 to 7.3 mg/kg | 0.125 µg/mL (≈ 0.0813 µM) | 0.5 µg/mL (≈ 0.325 µM) | – | – | – | – | – | –
CCN(CC)CCN(C)CC(NC(=O)c1csc(-c2nc3c(cc2O)-c2nc(cs2)C(=O)NC(C(C)O)C(=O)N/C(=C(\C)OC)c2nc(cs2)C(=O)NC2c4nc(cs4)C(=O)NC(COC(=O)c4c5c6c(cccc6n4O)COC(=O)C(O[C@H]4C[C@](C)(O)[C@H](N(C)C)[C@H](C)O4)C2OC5)c2nc-3cs2)n1)C(N)=O (some centres unmarked) [Example 6] | 0.125 µg/mL (≈ 0.0797 µM) | 0.19 to 7.3 mg/kg | 0.03 µg/mL (≈ 0.0191 µM) | 2 µg/mL (≈ 1.28 µM) | – | – | – | – | – | –
CO/C(C)=C1/NC(=O)C(C(C)O)NC(=O)c2csc(n2)-c2cc(O)c(-c3nc(C(=O)NC(CNCCc4ccccn4)C(N)=O)cs3)nc2-c2csc(n2)C2COC(=O)c3c4c5c(cccc5n3O)COC(=O)C(O[C@H]3C[C@](C)(O)[C@H](N(C)C)[C@H](C)O3)C(OC4)C(NC(=O)c3csc1n3)c1nc(cs1)C(=O)N2 (some centres unmarked) [Example 3] | 1 µg/mL (≈ 0.641 µM) | 0.19 to 7.3 mg/kg | 0.25 µg/mL (≈ 0.16 µM) | 1 µg/mL (≈ 0.641 µM) | – | – | – | – | – | –
CO/C(C)=C1/NC(=O)C([C@@H](C)O)NC(=O)c2csc(n2)-c2cc(O)c(-c3nc(C(=O)NC(CNCCCn4ccnc4)C(N)=O)cs3)nc2-c2csc(n2)[C@@H]2COC(=O)c3c4c5c(cccc5n3O)COC(=O)[C@@H](O[C@H]3C[C@](C)(O)[C@H](N(C)C)[C@H](C)O3)[C@H](OC4)[C@H](NC(=O)c3csc1n3)c1nc(cs1)C(=O)N2 (some centres unmarked) [Example 5] | 1 µg/mL (≈ 0.64 µM) | 0.19 to 7.3 mg/kg | 0.03 µg/mL (≈ 0.0192 µM) | 1 µg/mL (≈ 0.64 µM) | – | – | – | – | – | –
CO/C(C)=C1/NC(=O)C(C(C)O)NC(=O)c2csc(n2)-c2cc(O)c(-c3nc(C(=O)NC(CN4CCC[C@H]4CN4CCCC4)C(N)=O)cs3)nc2-c2csc(n2)C2COC(=O)c3c4c5c(cccc5n3O)COC(=O)C(O[C@H]3C[C@](C)(O)[C@H](N(C)C)[C@H](C)O3)C(OC4)C(NC(=O)c3csc1n3)c1nc(cs1)C(=O)N2 (some centres unmarked) [Example 65] | – | – | – | – | 0.03 µg/mL (≈ 0.0188 µM) | 2.0 µg/mL (≈ 1.26 µM) | 1.0 µg/mL (≈ 0.628 µM) | – | – | –
COCC1CCCN1CC(NC(=O)c1csc(-c2nc3c(cc2O)-c2nc(cs2)C(=O)NC(C(C)O)C(=O)NC(=C(C)OC)c2nc(cs2)C(=O)NC2c4nc(cs4)C(=O)NC(COC(=O)c4c5c6c(cccc6n4O)COC(=O)C(O)C2OC5)c2nc-3cs2)n1)C(N)=O (centres unmarked) [Example 98] | – | – | – | – | – | – | – | 0.03 µg/mL (≈ 0.0217 µM) | 0.003 µg/mL (≈ 0.00217 µM) | 0.5 µg/mL (≈ 0.362 µM)
CO/C(C)=C1/NC(=O)C(C(C)O)NC(=O)c2csc(n2)-c2cc(O)c(-c3nc(C(=O)NC(CN(C)CCO)C(N)=O)cs3)nc2-c2csc(n2)C2COC(=O)c3c4c5c(cccc5n3O)COC(=O)C(O[C@H]3C[C@](C)(O)[C@H](N(C)C)[C@H](C)O3)C(OC4)C(NC(=O)c3csc1n3)c1nc(cs1)C(=O)N2 (some centres unmarked) [Example 2] | 0.015 µg/mL (≈ 0.00992 µM) | 0.19 to 7.3 mg/kg | 0.015 µg/mL (≈ 0.00992 µM) | 0.06 µg/mL (≈ 0.0397 µM) | – | – | – | – | – | –
CO/C(C)=C1/NC(=O)C(C(C)O)NC(=O)c2csc(n2)-c2cc(O)c(-c3nc(C(=O)NC(CNCCN(CCN)CCN)C(N)=O)cs3)nc2-c2csc(n2)C2COC(=O)c3c4c5c(cccc5n3O)COC(=O)C(O[C@H]3C[C@](C)(O)[C@H](N(C)C)[C@H](C)O3)C(OC4)C(NC(=O)c3csc1n3)c1nc(cs1)C(=O)N2 (some centres unmarked) [Example 12] | – | – | – | – | – | – | – | 2.0 µg/mL (≈ 1.26 µM) | 0.5 µg/mL (≈ 0.316 µM) | 4.0 µg/mL (≈ 2.53 µM)
COC(C)=C1NC(=O)C(C(C)O)NC(=O)c2csc(n2)-c2cc(O)c(-c3nc(C(=O)NC(CN4CCCC4C(O)C4CCCCC4)C(N)=O)cs3)nc2-c2csc(n2)C2COC(=O)c3c4c5c(cccc5n3O)COC(=O)C(OC3CC(C)(O)C(N(C)C)C(C)O3)C(OC4)C(NC(=O)c3csc1n3)c1nc(cs1)C(=O)N2 (centres unmarked) [Example 90] | – | – | – | – | – | – | – | 0.03 µg/mL (≈ 0.0185 µM) | 0.007 µg/mL (≈ 0.00432 µM) | 0.06 µg/mL (≈ 0.037 µM)
CO/C(C)=C1/NC(=O)C(C(C)O)NC(=O)c2csc(n2)-c2cc(O)c(-c3nc(C(=O)NC(CSC(CC(=O)O)C(=O)O)C(N)=O)cs3)nc2-c2csc(n2)C2COC(=O)c3c4c5c(cccc5n3O)COC(=O)C(O[C@H]3C[C@](C)(O)[C@H](N(C)C)[C@H](C)O3)C(OC4)C(NC(=O)c3csc1n3)c1nc(cs1)C(=O)N2 (some centres unmarked) [Example 42] | – | – | – | – | – | – | – | 4.0 µg/mL (≈ 2.52 µM) | 0.25 µg/mL (≈ 0.157 µM) | 4.0 µg/mL (≈ 2.52 µM)
